Tested on: KB
Assay: Cytotoxicity against human KB cells
Format: functional, cell-based

Structure (SMILES)	IC50
CCCCCCCCCCCC(=O)OC(C)C(OC(C)=O)C(C)C(=O)NC[C@H](O)CC(=O)OC (some centres not stated) [GUAMAMIDE]	1200 nM
CCC[C@H](CC(=O)N[C@@H](Cc1ccccc1)C(=O)N(C)[C@@H](C(=O)N[C@H](C(=O)N(C)[C@H](C(=O)N(C)[C@@H](Cc1ccccc1)C(=O)N(C)Cc1nccs1)[C@@H](C)CC)C(C)C)C(C)C)OC [MICROMIDE]	260 nM

Reference: ChEMBL document CHEMBL1148151, “Micromide and guamamide: cytotoxic alkaloids from a species of the marine cyanobacterium Symploca” (J Nat Prod, 2004)
